Reference: PubChem BioAssay AID248 (DTP/NCI, 2004)
Inconclusive results and toxic doses are left out. Rule as the data show it: active = T/C of 150% or more; inactive = T/C below 125%.

System: L1210 leukemia ip in BDF1 mice, survival T/C
Assay: NCI In Vivo Anticancer Drug Screen. Data for tumor model L1210 Leukemia (intraperitoneal) in B6D2F1 (BDF1) mice
Conditions: endpoint: mean survival time, higher = longer survival
How it was run: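 Mice bearing the transplanted tumor received compound or vehicle. Survival of the treated group was divided by that of the vehicle-treated control group to give the ratio.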

[1] = dose: 100.0 mg/kg/injection, schedule: Q01DX009 (ip), vehicle: Klucel (hydroxypropylcellulose) (HPC)
[2] = dose: 100.0 mg/kg/injection, schedule: Q04DX002 (ip), vehicle: Klucel (hydroxypropylcellulose) (HPC)
[3] = dose: 200.0 mg/kg/injection, schedule: Q04DX002 (ip), vehicle: Klucel (hydroxypropylcellulose) (HPC)
[4] = dose: 400.0 mg/kg/injection, schedule: Q04DX002 (ip), vehicle: Klucel (hydroxypropylcellulose) (HPC)
[5] = dose: 100.0 mg/kg/injection, schedule: Q04DX003 (ip), vehicle: saline
[6] = dose: 200.0 mg/kg/injection, schedule: Q04DX003 (ip), vehicle: saline
[7] = dose: 400.0 mg/kg/injection, schedule: Q04DX003 (ip), vehicle: saline
[8] = dose: 100.0 mg/kg/injection, schedule: Q01DX001 (ip), vehicle: saline
[9] = dose: 200.0 mg/kg/injection, schedule: Q01DX001 (ip), vehicle: saline

Measured: T/C

Cc1cccc(C)c1NC(=O)Nc1ccc(Cl)cc1
inactive: [1] 97 % of control | dose: 100.0 mg/kg/injection, schedule: Q04DX003 (ip), vehicle: Klucel (hydroxypropylcellulose) (HPC) 97 % of control | dose: 200.0 mg/kg/injection, schedule: Q01DX009 (ip), vehicle: Klucel (hydroxypropylcellulose) (HPC) 96 % of control | dose: 200.0 mg/kg/injection, schedule: Q04DX003 (ip), vehicle: Klucel (hydroxypropylcellulose) (HPC) 100 % of control | dose: 400.0 mg/kg/injection, schedule: Q01DX009 (ip), vehicle: Klucel (hydroxypropylcellulose) (HPC) 91 % of control | dose: 400.0 mg/kg/injection, schedule: Q04DX003 (ip), vehicle: Klucel (hydroxypropylcellulose) (HPC) 95 % of control

COc1ccc([N+](=O)[O-])cc1NS(=O)(=O)c1ccc2ccccc2c1
inactive: [2] 104 % of control | [3] 100 % of control | [4] 115 % of control

Cc1cn(CC(=O)c2c[nH]c3ccccc23)c(=O)[nH]c1=O
inactive: dose: 100.0 mg/kg/injection, schedule: Q04DX002 (ip), vehicle: saline with Tween-80 101 % of control | dose: 200.0 mg/kg/injection, schedule: Q04DX002 (ip), vehicle: saline with Tween-80 101 % of control | dose: 400.0 mg/kg/injection, schedule: Q04DX002 (ip), vehicle: saline with Tween-80 93 % of control

COc1cc2c(cc1OC)Cc1cc(OC)c(OC)cc1Cc1cc(OC)c(OC)cc1C2
inactive: [5] 92 % of control | [6] 96 % of control | [7] 97 % of control

c1ccc(Cc2nn[nH]n2)cc1
inactive: [2] 105 % of control | [3] 101 % of control | [4] 105 % of control

CN=C(C)C1=C(O)C(CC(=O)OC)N(C)C1=O (configuration not stated)
inactive: [5] 103 % of control | [6] 102 % of control | [7] 96 % of control

CC(=O)Nc1ccc2c(c1)Cc1cccc(NC(C)=O)c1-2
inactive: dose: 25.0 mg/kg/injection, schedule: Q01DX009 (ip), vehicle: Klucel (hydroxypropylcellulose) (HPC) 95 % of control | dose: 50.0 mg/kg/injection, schedule: Q01DX009 (ip), vehicle: Klucel (hydroxypropylcellulose) (HPC) 103 % of control | [1] 103 % of control

CN=C(N)N(C)/N=C(C)\C=N\N(C)C(N)=NC
inactive: dose: 15.0 mg/kg/injection, schedule: Q01DX Z (ip), vehicle: carboxymethylcellulose (CMC) 98 % of control | dose: 30.0 mg/kg/injection, schedule: Q01DX Z (ip), vehicle: carboxymethylcellulose (CMC) 96 % of control | dose: 60.0 mg/kg/injection, schedule: Q01DX Z (ip), vehicle: carboxymethylcellulose (CMC) 101 % of control | dose: 120.0 mg/kg/injection, schedule: Q01DX Z (ip), vehicle: carboxymethylcellulose (CMC) 113 % of control | dose: 240.0 mg/kg/injection, schedule: Q01DX Z (oral), vehicle: carboxymethylcellulose (CMC) 104 % of control | dose: 480.0 mg/kg/injection, schedule: Q01DX Z (oral), vehicle: carboxymethylcellulose (CMC) 104 % of control

Cc1cc2c3ccccc3[nH]c(=O)n2n1
inactive: dose: 100.0 mg/kg/injection, schedule: Q01DX009 (ip), vehicle: saline with Tween-80 96 % of control | [5] 100 % of control | dose: 200.0 mg/kg/injection, schedule: Q01DX009 (ip), vehicle: saline with Tween-80 95 % of control | [6] 96 % of control | dose: 400.0 mg/kg/injection, schedule: Q01DX009 (ip), vehicle: saline with Tween-80 86 % of control | [7] 87 % of control

Nc1nc2nc(-c3ccc([N+](=O)[O-])cc3)nc(N)c2nc1-c1ccc(N(CCCl)CCCl)cc1
inactive: [8] 96 % of control | [9] 95 % of control | dose: 400.0 mg/kg/injection, schedule: Q01DX001 (ip), vehicle: saline 101 % of control

COc1cccc(C[P+](C/C=C/c2ccccc2)(c2ccccc2)c2ccccc2)c1
inactive: dose: 6.25 mg/kg/injection, schedule: Q04DX003 (ip), vehicle: Klucel (hydroxypropylcellulose) (HPC) 109 % of control | dose: 12.5 mg/kg/injection, schedule: Q04DX003 (ip), vehicle: Klucel (hydroxypropylcellulose) (HPC) 88 % of control | dose: 25.0 mg/kg/injection, schedule: Q04DX003 (ip), vehicle: Klucel (hydroxypropylcellulose) (HPC) 97 % of control

O=C1CC(C(=O)O)C(C(=O)O)O1 (configuration not stated)
inactive: dose: 50.0 mg/kg/injection, schedule: Q01DX001 (ip), vehicle: saline 97 % of control | dose: 75.0 mg/kg/injection, schedule: Q01DX001 (ip), vehicle: saline 101 % of control | [8] 92 % of control | dose: 150.0 mg/kg/injection, schedule: Q01DX001 (ip), vehicle: saline 97 % of control | [9] 90 % of control
